Test results taken from BindingDB's records for doi:10.1016/j.bmcl.2007.07.104 (Glaxosmithkline, 2007).

Molecular target: Proto-oncogene tyrosine-protein kinase receptor Ret (Homo sapiens, UniProt P07949)
Test: RET Kinase Inhibition Assay
Conditions: pH 7.4; 22 °C

Proto-oncogene tyrosine-protein kinase receptor Ret, sequence (P07949 whole entry): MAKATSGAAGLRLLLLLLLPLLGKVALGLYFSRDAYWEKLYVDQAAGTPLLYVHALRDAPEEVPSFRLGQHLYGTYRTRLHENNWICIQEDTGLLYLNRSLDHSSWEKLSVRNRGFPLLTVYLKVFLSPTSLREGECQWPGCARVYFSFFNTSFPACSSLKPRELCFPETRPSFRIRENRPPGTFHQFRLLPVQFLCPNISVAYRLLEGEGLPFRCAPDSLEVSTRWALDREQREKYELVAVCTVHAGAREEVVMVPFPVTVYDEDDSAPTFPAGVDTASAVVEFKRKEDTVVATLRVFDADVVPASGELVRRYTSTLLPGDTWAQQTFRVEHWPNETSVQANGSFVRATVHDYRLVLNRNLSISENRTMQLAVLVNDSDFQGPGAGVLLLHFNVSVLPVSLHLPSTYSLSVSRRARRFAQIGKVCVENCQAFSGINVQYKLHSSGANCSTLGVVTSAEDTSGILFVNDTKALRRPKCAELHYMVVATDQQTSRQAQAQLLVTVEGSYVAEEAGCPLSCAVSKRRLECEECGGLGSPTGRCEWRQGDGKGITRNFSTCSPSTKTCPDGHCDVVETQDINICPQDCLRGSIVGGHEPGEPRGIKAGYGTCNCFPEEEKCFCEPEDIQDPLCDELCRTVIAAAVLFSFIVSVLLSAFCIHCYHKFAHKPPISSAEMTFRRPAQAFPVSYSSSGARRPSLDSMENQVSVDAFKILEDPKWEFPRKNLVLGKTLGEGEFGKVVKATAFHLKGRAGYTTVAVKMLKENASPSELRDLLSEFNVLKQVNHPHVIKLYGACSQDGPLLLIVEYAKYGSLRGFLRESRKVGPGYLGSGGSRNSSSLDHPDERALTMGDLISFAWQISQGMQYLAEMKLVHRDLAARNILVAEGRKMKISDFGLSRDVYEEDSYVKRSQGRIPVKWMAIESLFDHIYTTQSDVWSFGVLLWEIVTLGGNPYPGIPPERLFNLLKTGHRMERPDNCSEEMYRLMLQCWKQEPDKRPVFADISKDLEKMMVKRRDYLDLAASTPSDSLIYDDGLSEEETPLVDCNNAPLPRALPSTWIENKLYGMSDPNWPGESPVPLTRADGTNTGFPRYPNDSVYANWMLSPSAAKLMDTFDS

## Cc1ccc(O)cc1Nc1cc(C(F)(F)F)nc2ccc(-c3ccncc3)cc12 [4-methyl-3-{[6-(pyridin-4-yl)-2-(trifluoromethyl)quinolin-4-yl]amino}phenol]
  IC50: > 1 µM
